Values after ≈ are worked out from the molar mass of the structure shown. Active and inactive are the calls of the source. The calls are words filed in the database; no cut-off is given here.
Columns and labels:
[1] = molecular target: T1, Free fatty acid receptor 4 (Homo sapiens) (UniProt Q5NUL3); test: Agonist activity at N-terminal FLAG tagged human FFAR4 transfected in African green monkey COS-7 cells assessed as accumulation of inositol phosphate at 10 uM incubated for 90 mins by TopCount NXT counter based analysis relative to control; format: cell-based
T1 sequence (whole entry): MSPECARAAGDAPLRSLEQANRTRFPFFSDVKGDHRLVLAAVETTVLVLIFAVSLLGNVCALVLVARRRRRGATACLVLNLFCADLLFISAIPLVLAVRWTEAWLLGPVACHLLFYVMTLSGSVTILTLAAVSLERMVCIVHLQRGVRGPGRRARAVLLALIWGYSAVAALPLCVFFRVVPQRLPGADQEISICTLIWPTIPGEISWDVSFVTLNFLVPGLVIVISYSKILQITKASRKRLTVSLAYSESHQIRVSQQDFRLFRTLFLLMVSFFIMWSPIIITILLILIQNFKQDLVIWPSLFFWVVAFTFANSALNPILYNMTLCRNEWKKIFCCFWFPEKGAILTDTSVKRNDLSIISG

[2] = Lipophilicity, logD of the compound; format: physicochemical; conditions: octanol/water
[3] = Solubility of the compound in PBS buffer at pH 7.4; format: physicochemical
[4] = molecular target: T2, Free fatty acid receptor 4 (Homo sapiens, UniProt Q5NUL3); test: Agonist activity at N-terminal FLAG tagged human FFAR4 transfected in African green monkey COS-7 cells assessed as accumulation of inositol phosphate incubated for 90 mins by TopCount NXT counter based analysis; format: cell-based
T2 sequence (Q5NUL3 whole entry): T1 sequence (whole entry)

[5] = Metabolic stability in CD-1 mouse liver S9 fraction assessed as half-life at 2 uM measured upto 40 mins in the presence of NADPH by HPLC-MS analysis; format: ADME, subcellular; conditions: s9, 40 min
[6] = molecular target: Free fatty acid receptor 1 (Homo sapiens, UniProt O14842); test: Agonist activity at N-terminal FLAG tagged human FFAR1 transfected in African green monkey COS-7 cells assessed as accumulation of inositol phosphate incubated for 90 mins by TopCount NXT counter based analysis; format: cell-based
Chain of Free fatty acid receptor 1 (O14842 whole entry): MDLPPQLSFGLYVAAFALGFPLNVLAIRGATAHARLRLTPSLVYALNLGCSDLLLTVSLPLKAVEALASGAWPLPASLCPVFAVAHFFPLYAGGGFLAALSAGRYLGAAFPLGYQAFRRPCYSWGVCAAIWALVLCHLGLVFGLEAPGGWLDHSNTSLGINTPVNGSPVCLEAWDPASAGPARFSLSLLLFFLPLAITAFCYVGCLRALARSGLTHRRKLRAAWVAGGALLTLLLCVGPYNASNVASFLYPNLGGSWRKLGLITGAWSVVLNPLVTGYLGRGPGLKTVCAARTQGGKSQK

[7] = test system: Free fatty acid receptor 1 (Homo sapiens), O14842 [S8A]; test: Agonist activity at N-terminal FLAG tagged human FFAR1 S8A mutant transfected in African green monkey COS-7 cells assessed as accumulation of inositol phosphate by measuring fold decrease in potency incubated for 90 mins by TopCount NXT counter based analysis; format: cell-based; conditions: filed as agonist
Chain of Free fatty acid receptor 1 (Homo sapiens), O14842 [S8A] (O14842 whole entry S8A): as the sequence (O14842 whole entry) above, with S8A counted along it

[8] = test system: COS-7; test: Agonist activity at N-terminal FLAG tagged human FFAR1 Y12 mutant transfected in African green monkey COS-7 cells assessed as accumulation of inositol phosphate incubated for 90 mins by TopCount NXT counter based analysis; format: cell-based
[9] = test system: COS-7; test: Agonist activity at N-terminal FLAG tagged human FFAR1 L262 mutant transfected in African green monkey COS-7 cells assessed as accumulation of inositol phosphate incubated for 90 mins by TopCount NXT counter based analysis; format: cell-based
[10] = test system: Free fatty acid receptor 1 (Homo sapiens), O14842 [S8A]; test: Agonist activity at N-terminal FLAG tagged human FFAR1 S8A mutant transfected in African green monkey COS-7 cells assessed as accumulation of inositol phosphate by measuring decrease in efficacy incubated for 90 mins by TopCount NXT counter based analysis relative to control; format: cell-based
[11] = test system: COS-7; test: Agonist activity at N-terminal FLAG tagged human FFAR1 K259 mutant transfected in African green monkey COS-7 cells assessed as accumulation of inositol phosphate incubated for 90 mins by TopCount NXT counter based analysis; format: cell-based
[12] = test system: Free fatty acid receptor 1 (Homo sapiens), O14842 [A83F]; test: Agonist activity at N-terminal FLAG tagged human FFAR1 A83F mutant transfected in African green monkey COS-7 cells assessed as accumulation of inositol phosphate by measuring fold change in potency incubated for 90 mins by TopCount NXT counter based analysis; format: cell-based; conditions: filed as agonist
Chain of Free fatty acid receptor 1 (Homo sapiens), O14842 [A83F] (O14842 whole entry A83F): as the sequence (O14842 whole entry) above, with A83F counted along it

[13] = test system: COS-7; test: Agonist activity at N-terminal FLAG tagged human FFAR1 A66 mutant transfected in African green monkey COS-7 cells assessed as accumulation of inositol phosphate incubated for 90 mins by TopCount NXT counter based analysis; format: cell-based
[14] = test system: COS-7; test: Agonist activity at N-terminal FLAG tagged human FFAR1 E65 mutant transfected in African green monkey COS-7 cells assessed as accumulation of inositol phosphate incubated for 90 mins by TopCount NXT counter based analysis; format: cell-based
[15] = test system: Free fatty acid receptor 1 (Homo sapiens), O14842 [L262W]; test: Agonist activity at N-terminal FLAG tagged human FFAR1 L262W mutant transfected in African green monkey COS-7 cells assessed as accumulation of inositol phosphate by measuring change in efficacy incubated for 90 mins by TopCount NXT counter based analysis relative to control; format: cell-based
Chain of Free fatty acid receptor 1 (Homo sapiens), O14842 [L262W] (O14842 whole entry L262W): as the sequence (O14842 whole entry) above, with L262W counted along it

[16] = test system: Free fatty acid receptor 1 (Homo sapiens), O14842 [K259A]; test: Agonist activity at N-terminal FLAG tagged human FFAR1 K259A mutant transfected in African green monkey COS-7 cells assessed as accumulation of inositol phosphate by measuring change in efficacy incubated for 90 mins by TopCount NXT counter based analysis relative to control; format: cell-based
Chain of Free fatty acid receptor 1 (Homo sapiens), O14842 [K259A] (O14842 whole entry K259A): as the sequence (O14842 whole entry) above, with K259A counted along it

[17] = test system: Free fatty acid receptor 1 (Homo sapiens), O14842 [A83F]; test: Agonist activity at N-terminal FLAG tagged human FFAR1 A83F mutant transfected in African green monkey COS-7 cells assessed as accumulation of inositol phosphate incubated for 90 mins by TopCount NXT counter based analysis; format: cell-based; conditions: filed as agonist

Compound | Emax [1] [%] | logD [2] | solubility kinetic [3] [µM] | EC50 [4] [µM] | t1/2 [5] [min] | EC50 [6] [µM] | further results
Cc1cc(OCc2nc(N)nc(NCCc3ccccc3N3CCOCC3)n2)cc(N2CCCC2=O)c1 | 30 | 2.93 | 119 (≈ 59.9 µg/mL) | 0.081 | 0.9 | – | –
Cc1cc(OCc2nc(N)nc(NC3(Cc4cccc(Cl)c4)CC3)n2)cc(N2CCCC2=O)c1 | – | 3.82 | 23 (≈ 11 µg/mL) | – | 0.7 | 0.061 | –
Cc1cc(OCc2nc(N)nc(NCCc3cc(Cl)ccc3Cl)n2)cc(N2CCCC2=O)c1 | 30 | 3.46 | 19 (≈ 9.26 µg/mL) | 0.002 | 1.9 | 0.001 | fold change (FC) [7]: 10; Activity [8]: inactive; Activity [9]: inactive; Efficacy [10]: 35%; Activity [11]: inactive; fold change (FC) [12]: 2; Activity [13]: inactive; Activity [14]: inactive
Cc1cc(OCc2nc(N)nc(NCCc3cccc(F)c3)n2)cc(N2CCCC2=O)c1 | 35 | 3.32 | 84 (≈ 36.7 µg/mL) | 0.029 | 1.1 | 0.05 | –
Cc1cc(OCc2nc(N)nc(NCCC3CCCCC3(F)F)n2)cc(N2CCCC2=O)c1 (centres undefined) | – | 3.53 | 55 (≈ 25.3 µg/mL) | – | 0.8 | – | –
Cc1cc(OCc2nc(N)nc(NCCc3cccc(Cl)c3)n2)cc(N2CCCC2=O)c1 | – | 3.77 | 11 (≈ 4.98 µg/mL) | 0.006 | 2.3 | 0.003 | Emax ([1]; filed as agonist): 43%
COc1ccc(F)c(-c2ccc(COc3ccc4c(c3)[C@]3(CC4)C[C@H]3C(=O)O)cc2[C@@H]2CCCC2(C)C)c1 | – | – | – | – | – | – | Efficacy [15]: -25%; Efficacy [16]: -25%; Activity [17]: Active
Cc1cc(OCc2nc(N)nc(NCCc3cccc4c3OC(F)(F)O4)n2)cc(N2CCCC2=O)c1 | – | 3.42 | 13 (≈ 6.48 µg/mL) | – | 0.8 | – | –
Cc1ccc(Nc2nc(N)nc(COc3ccc4c(C)cc(=O)oc4c3)n2)cc1Cl | – | – | < 2 | 0.15 | – | 0.14 | Emax ([1]; filed as agonist): 45%
Cc1cc(OCc2nc(N)nc(NCC(C)c3cccc(Cl)c3)n2)cc(N2CCCC2=O)c1 (centres undefined) | 33 | 3.93 | 14 (≈ 6.54 µg/mL) | 0.01 | 0.8 | 0.006 | –
Cc1ccc(Nc2nc(N)nc(COc3cccc(N4CCCC4=O)c3)n2)cc1Cl | – | – | 28 (≈ 11.9 µg/mL) | 0.59 | – | 0.82 | Emax ([1]; filed as agonist): 50%
Cc1cc(OCCCS(C)(=O)=O)cc(C)c1-c1cccc(COc2ccc3c(c2)OC[C@H]3CC(=O)O)c1 | – | – | – | – | – | – | fold change (FC) [12]: 500
COC(CNc1nc(N)nc(COc2cc(C)cc(N3CCCC3=O)c2)n1)c1cccc(Cl)c1 (centres undefined) | 32 | 3.52 | 36 (≈ 17.4 µg/mL) | 0.012 | 2 | 0.015 | –
Cc1cc(OCc2nc(N)nc(NCC(c3cccc(Cl)c3)N3CCCC3)n2)cc(N2CCCC2=O)c1 (centres undefined) | – | 2.79 | 294 (≈ 153 µg/mL) | – | 3 | 0.61 | –

Source: ChEMBL document CHEMBL5236638, “Optimization of First-in-Class Dual-Acting FFAR1/FFAR4 Allosteric Modulators with Novel Mode of Action” (ACS Med Chem Lett, 2022)
